Activity calls are given as the source filed them. No cut-off for these calls is given here.
Legend:
[1] = target: T1, Ectonucleotide pyrophosphatase/phosphodiesterase family member 1 (Homo sapiens, UniProt P22413); assay: Inhibition of full-length human NPP-1 expressed in baculovirus infected Sf9 cells using p-Nph5-TMP as substrate after 60 mins by colorimetric assay
T1 sequence (P22413 whole entry): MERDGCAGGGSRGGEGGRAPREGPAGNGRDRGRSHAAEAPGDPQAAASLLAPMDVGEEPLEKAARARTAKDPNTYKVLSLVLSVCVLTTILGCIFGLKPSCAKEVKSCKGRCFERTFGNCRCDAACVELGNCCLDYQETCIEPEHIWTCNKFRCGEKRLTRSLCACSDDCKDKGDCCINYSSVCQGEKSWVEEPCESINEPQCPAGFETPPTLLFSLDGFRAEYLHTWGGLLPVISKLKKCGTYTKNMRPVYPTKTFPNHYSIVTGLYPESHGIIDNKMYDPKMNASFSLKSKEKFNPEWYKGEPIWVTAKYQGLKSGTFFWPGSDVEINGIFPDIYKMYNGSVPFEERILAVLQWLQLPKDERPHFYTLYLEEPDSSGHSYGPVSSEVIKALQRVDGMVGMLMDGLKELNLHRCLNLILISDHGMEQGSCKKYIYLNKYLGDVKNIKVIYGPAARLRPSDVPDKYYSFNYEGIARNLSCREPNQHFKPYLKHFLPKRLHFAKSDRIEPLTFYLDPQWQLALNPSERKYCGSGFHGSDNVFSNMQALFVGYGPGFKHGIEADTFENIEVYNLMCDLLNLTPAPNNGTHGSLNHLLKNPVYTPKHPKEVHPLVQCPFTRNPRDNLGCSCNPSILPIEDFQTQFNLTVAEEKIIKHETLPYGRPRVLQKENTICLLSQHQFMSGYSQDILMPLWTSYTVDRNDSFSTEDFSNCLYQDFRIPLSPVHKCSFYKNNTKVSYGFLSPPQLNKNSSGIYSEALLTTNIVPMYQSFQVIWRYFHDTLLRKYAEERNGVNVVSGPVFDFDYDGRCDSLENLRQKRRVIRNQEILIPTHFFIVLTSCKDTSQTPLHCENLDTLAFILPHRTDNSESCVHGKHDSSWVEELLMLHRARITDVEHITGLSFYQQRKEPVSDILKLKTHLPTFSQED

[2] = target: T2, Ectonucleotide pyrophosphatase/phosphodiesterase family member 3 (Homo sapiens) (UniProt O14638); assay: Inhibition of human NPP3 expressed in COS7 cell membranes at 100 uM using pNP-TMP as substrate preincubated for 3 mins followed by substrate addition and measured after 15 mins relative to control
T2 sequence (whole entry): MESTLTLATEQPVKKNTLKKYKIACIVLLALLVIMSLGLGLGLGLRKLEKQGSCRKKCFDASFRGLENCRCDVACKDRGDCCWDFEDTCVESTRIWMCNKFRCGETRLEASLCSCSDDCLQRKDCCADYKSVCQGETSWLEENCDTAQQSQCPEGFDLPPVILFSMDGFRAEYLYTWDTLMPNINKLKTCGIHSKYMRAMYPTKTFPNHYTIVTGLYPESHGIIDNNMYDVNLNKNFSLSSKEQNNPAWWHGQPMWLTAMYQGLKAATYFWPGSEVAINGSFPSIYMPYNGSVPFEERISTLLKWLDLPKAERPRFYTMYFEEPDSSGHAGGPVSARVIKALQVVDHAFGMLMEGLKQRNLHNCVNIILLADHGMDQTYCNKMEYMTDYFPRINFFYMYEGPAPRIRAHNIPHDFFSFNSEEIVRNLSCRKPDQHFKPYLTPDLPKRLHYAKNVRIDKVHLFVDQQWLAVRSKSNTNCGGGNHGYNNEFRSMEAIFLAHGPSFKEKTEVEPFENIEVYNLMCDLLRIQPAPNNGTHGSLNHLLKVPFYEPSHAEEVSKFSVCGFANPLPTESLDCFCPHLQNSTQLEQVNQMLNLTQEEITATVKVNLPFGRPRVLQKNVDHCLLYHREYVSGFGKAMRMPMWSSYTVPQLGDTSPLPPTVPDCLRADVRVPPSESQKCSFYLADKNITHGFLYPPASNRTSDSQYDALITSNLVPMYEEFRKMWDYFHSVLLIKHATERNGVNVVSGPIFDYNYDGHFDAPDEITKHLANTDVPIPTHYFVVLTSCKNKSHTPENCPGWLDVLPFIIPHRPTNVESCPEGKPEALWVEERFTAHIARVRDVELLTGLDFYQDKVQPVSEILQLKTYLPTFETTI

[3] = Cytotoxicity against human primary chondrocytes at 100 uM after 24 hrs by XTT assay
[4] = target: P2Y purinoceptor 6 (Homo sapiens) (UniProt Q15077); assay: Agonist activity at human P2Y6 receptor expressed in AD293 cells assessed as inositol-1-phosphate accumulation at 100 uM; format: functional, cell-based
P2Y purinoceptor 6 (Homo sapiens), sequence (Q15077 whole entry): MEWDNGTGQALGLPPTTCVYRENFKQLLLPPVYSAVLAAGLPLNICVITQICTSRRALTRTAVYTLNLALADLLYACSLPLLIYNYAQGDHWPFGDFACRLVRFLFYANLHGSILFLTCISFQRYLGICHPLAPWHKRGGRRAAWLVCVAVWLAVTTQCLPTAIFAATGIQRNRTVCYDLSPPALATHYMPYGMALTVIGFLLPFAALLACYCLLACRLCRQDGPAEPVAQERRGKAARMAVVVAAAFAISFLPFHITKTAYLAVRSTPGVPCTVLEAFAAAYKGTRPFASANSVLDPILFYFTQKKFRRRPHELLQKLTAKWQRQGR

[5] = target: P2Y purinoceptor 2 (Homo sapiens) (UniProt P41231); assay: Agonist activity at human P2Y2 receptor expressed in AD293 cells assessed as inositol-1-phosphate accumulation at 100 uM; format: functional, cell-based
P2Y purinoceptor 2 (Homo sapiens), sequence (P41231 whole entry): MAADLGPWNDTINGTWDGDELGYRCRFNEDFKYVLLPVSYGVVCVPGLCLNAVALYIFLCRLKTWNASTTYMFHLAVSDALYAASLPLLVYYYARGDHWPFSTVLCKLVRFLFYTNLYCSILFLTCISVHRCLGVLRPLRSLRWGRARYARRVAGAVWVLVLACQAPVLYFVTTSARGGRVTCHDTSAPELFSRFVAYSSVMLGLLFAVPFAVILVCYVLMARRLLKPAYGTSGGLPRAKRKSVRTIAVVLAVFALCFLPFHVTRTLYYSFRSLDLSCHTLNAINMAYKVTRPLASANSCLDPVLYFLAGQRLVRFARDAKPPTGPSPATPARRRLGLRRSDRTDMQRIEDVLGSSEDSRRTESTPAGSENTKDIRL

[6] = target: P2Y purinoceptor 2 (Homo sapiens) (UniProt P41231); assay: Antagonist activity at human P2Y2 receptor expressed in AD293 cells assessed as inhibition of UTP-induced inositol-1-phosphate accumulation at 100 uM; format: functional, cell-based
[7] = target: P2Y purinoceptor 6 (Homo sapiens) (UniProt Q15077); assay: Antagonist activity at human P2Y6 receptor expressed in AD293 cells assessed as inhibition of UDP-induced inositol-1-phosphate accumulation at 0.1 to 100 uM; format: functional, cell-based
[8] = target: T3, Ectonucleotide pyrophosphatase/phosphodiesterase family member 1 (Homo sapiens) (UniProt P22413); assay: Inhibition of human NPP1 expressed in COS7 cell membranes at 100 uM using pNP-TMP as substrate preincubated for 3 mins followed by substrate addition and measured after 15 mins relative to control
T3 sequence (whole entry): T1 sequence (P22413 whole entry)

[9] = target: P2Y purinoceptor 4 (Homo sapiens) (UniProt P51582); assay: Agonist activity at human P2Y4 receptor expressed in AD293 cells assessed as inositol-1-phosphate accumulation at 0.1 to 100 uM; format: functional, cell-based
P2Y purinoceptor 4 (Homo sapiens), sequence (P51582 whole entry): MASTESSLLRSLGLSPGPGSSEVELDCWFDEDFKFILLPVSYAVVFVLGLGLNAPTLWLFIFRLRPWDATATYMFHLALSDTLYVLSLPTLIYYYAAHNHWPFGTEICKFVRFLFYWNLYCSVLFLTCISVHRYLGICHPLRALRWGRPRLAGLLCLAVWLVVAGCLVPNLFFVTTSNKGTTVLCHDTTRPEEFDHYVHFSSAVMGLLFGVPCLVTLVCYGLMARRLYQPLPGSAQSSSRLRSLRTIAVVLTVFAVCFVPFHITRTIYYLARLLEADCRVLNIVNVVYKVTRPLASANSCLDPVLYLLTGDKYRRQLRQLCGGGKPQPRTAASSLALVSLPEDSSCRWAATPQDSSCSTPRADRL

[10] = species: Homo sapiens; assay: Inhibition of alkaline phosphatase in human primary chondrocyte at 100 uM using p-nitrophenyl phosphate as substrate after 30 mins by […] relative to control
[11] = target: T1, Ectonucleotide pyrophosphatase/phosphodiesterase family member 1; assay: Inhibition of human NPP1 expressed in COS7 cell membranes using pNP-TMP as substrate preincubated for 3 mins followed by substrate addition and measured after 15 mins by Dixon plot analysis
[12] = target: P2Y purinoceptor 4 (Homo sapiens) (UniProt P51582); assay: Antagonist activity at human P2Y4 receptor expressed in AD293 cells assessed as inhibition of UTP-induced inositol-1-phosphate accumulation at 0.1 to 100 uM; format: functional, cell-based

Row | Ki [1] [µM] | Structure (SMILES) | inhibition [2] [%] | Activity [3] | Activity [4] | Activity [5] | inhibition [6] | inhibition [7] | inhibition [8] [%] | Activity [9] | inhibition [10] [%] | Ki [11] [µM] | inhibition [12]
1 | 16.3 | Nc1ncnc2c1ncn2COCCOP(=O)(O)CP(=O)(O)O |  |  |  |  |  |  |  |  |  |  | 
2 |  | O=c1ccn(COCCOP(=S)(S)OP(=O)(O)OP(=O)(O)O)c(=O)[nH]1 (stereo not drawn) | 31 | Non-Toxic | Active | inactive | inactive | inactive | 96 to 98 | inactive | < 10 | 1.28 | inactive
3 |  | O=c1ccn(COCCOP(=S)(S)OP(=O)(O)O)c(=O)[nH]1 (stereo not drawn) | 30 | Non-Toxic | Active | inactive | inactive | inactive | 96 to 98 | inactive | < 10 | 2.83 | inactive
